From PubChem BioAssay (NCI)
Where “and” joins values, the source holds several entries; their conditions need not be identical. Equal entries are not always repeated.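 A five-concentration, 48-hour dose response in 96-well plates underlies each endpoint, interpolated linearly between surrounding concentrations. Here, GI50 denotes the concentration required for 50% inhibition of growth. Definition used: TGI = concentration required for complete inhibition of growth.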

Tests used:
Test in all cases: inhibition of tumour cell growth, NCI panel, 48 h
IGROV1 ovarian = system: IGROV1 ovarian
OVCAR-8 ovarian = system: OVCAR-8 ovarian
CCRF-CEM leukemia = system: CCRF-CEM leukemia
SK-MEL-5 melanoma = system: SK-MEL-5 melanoma
EKVX NSCLC = system: EKVX NSCLC
786-0 renal = system: 786-0 renal
DU-145 prostate = system: DU-145 prostate
HCT-116 colon = system: HCT-116 colon
CAKI-1 renal = system: CAKI-1 renal
UACC-62 melanoma = system: UACC-62 melanoma

SMILES	TGI (IGROV1 ovarian)	TGI (OVCAR-8 ovarian)	TGI (CCRF-CEM leukemia)	TGI (SK-MEL-5 melanoma)	TGI (EKVX NSCLC)	TGI (786-0 renal)	TGI (DU-145 prostate)	TGI (HCT-116 colon)	TGI (CAKI-1 renal)	TGI (UACC-62 melanoma)	GI50 (IGROV1 ovarian)	GI50 (OVCAR-8 ovarian)	GI50 (CAKI-1 renal)	GI50 (UACC-62 melanoma)	GI50 (CCRF-CEM leukemia)	GI50 (EKVX NSCLC)
Nc1nc(NNc2cccc(F)c2)cc(=O)[nH]1	> 100 µM	> 100 µM	> 100 µM	> 100 µM	> 100 µM	37.5 µM	> 100 µM	61.2 µM								
O=C(O)c1nc2ccccc2nc1Nc1ccc(Cl)c(Cl)c1	> 100 µM	> 100 µM	> 100 µM	47 µM	> 100 µM	63.9 µM	> 100 µM	76.7 µM	77.9 µM							
COC(=O)C(=O)C(C(=O)OC)C(=O)C(=O)Nc1c(C)cccc1C (stereo unspecified)	> 100 µM	> 100 µM	> 100 µM	> 100 µM	> 100 µM	> 100 µM		> 100 µM	> 100 µM	> 100 µM						
CC(C)c1cccc(C(C)C)c1NC(=O)C(=O)Cc1nc2ccc([N+](=O)[O-])cc2[nH]c1=O	> 100 µM		> 100 µM		> 100 µM	> 100 µM		> 100 µM	> 100 µM	> 100 µM						
CC(C)(C)c1cc(CCC(=O)Nc2ccc(Cl)cc2)[nH]c(=S)n1	> 100 µM	> 100 µM	> 100 µM	> 100 µM	> 100 µM	> 100 µM			> 100 µM	> 100 µM						
Cc1ccc(C(=O)CC2(O)C(=O)Nc3c(C)cc(Cl)cc32)cc1 (stereo unspecified)		> 100 µM	> 100 µM	> 100 µM	> 100 µM	> 100 µM			> 100 µM							
O=C(Cc1ccccc1)NN1C(=O)C(Cl)C1c1ccccc1Cl (stereo unspecified)	> 93.1 µM	> 100 µM	55.8 µM	> 100 µM	> 100 µM	> 100 µM		> 100 µM	> 100 µM	> 100 µM						
CCOc1ccccc1N=Nc1ccc2oc(=O)c(C(C)=O)cc2c1	> 100 µM	> 100 µM	> 100 µM	> 100 µM	> 100 µM	> 100 µM		> 100 µM	> 100 µM	> 100 µM						
CCCCOCCOCCOC1=CC(=O)c2c(O)ccc(O)c2C1=O	3.38 µM		6.01 µM	2.25 µM	> 10 µM	2.95 µM	3.1 µM	3.22 µM	3.76 µM	3.64 µM						
COc1ccccc1NC(=O)C1=C(C)NC(C)=C(C(=O)Nc2ccccc2OC)C1c1ccccc1[N+](=O)[O-]	45 µM	40.5 µM	48.9 µM	74.3 µM	> 100 µM	35.5 µM		> 100 µM		54.1 µM						
COC(=O)C1CC2C=CC=CC(=O)C2(C)C1 (stereo unspecified)	> 100 µM	> 100 µM	71.8 µM	> 100 µM	> 100 µM	> 100 µM		86.3 µM	> 100 µM	> 100 µM						
COC(=O)c1ccc2c(c1)CC1(C2)Cc2cc3c(cc2C1)CCC3	> 100 µM	> 100 µM	> 100 µM	> 100 µM	> 100 µM	> 100 µM	> 100 µM	> 100 µM	> 100 µM							
COc1ccc(N2C(=O)c3c(c4[nH]c5ccccc5c4c4ccc(C(C)(C)C)cc34)C2=O)cc1	> 100 µM	63.6 µM	42.1 µM	> 100 µM	> 100 µM	> 100 µM		> 100 µM	> 100 µM	48.3 µM						
O=Cc1c[nH]c2c(=O)[nH]cnc12	> 100 µM	> 100 µM	> 100 µM	> 100 µM	> 100 µM	> 100 µM		> 100 µM	> 100 µM	> 100 µM						
Clc1ccc(Nc2nnc(CNc3ccc(-c4nnc(Nc5ccc(Cl)cc5)s4)cc3)s2)cc1	> 100 µM			79.3 µM	> 100 µM	75.1 µM	> 100 µM	30.8 µM	> 100 µM	64.9 µM						
O=C/C(=C1/C=Cc2cc([N+](=O)[O-])ccc2S1)c1ccccc1	> 100 µM		> 100 µM	> 100 µM	> 100 µM	> 100 µM	> 100 µM	> 100 µM	> 100 µM							
CC1=CC2C(C=C1)S(=O)(=O)N1CC21c1ccccc1 (stereo unspecified)	> 100 µM	> 100 µM	> 100 µM	> 100 µM		> 100 µM		> 100 µM	> 100 µM	> 100 µM						
COc1cc2ccc3c4ccccc4cnc3c2cc1OC	> 100 µM	> 100 µM	> 100 µM	> 100 µM	> 100 µM	> 100 µM		> 100 µM	> 100 µM	> 100 µM						
O=C1[C@@H]2C(c3ccc(Br)cc3)=NO[C@@H]2C(=O)N1c1ccc(Cc2ccc(N3C(=O)[C@H]4C(c5ccc(Br)cc5)=NO[C@H]4C3=O)cc2)cc1	> 40 µM	> 40 µM	> 40 µM	> 3.48 µM	> 3.48 µM	> 3.48 µM		> 40 µM	> 40 µM	> 40 µM	> 40 µM	> 40 µM	> 40 µM	> 40 µM	> 40 µM	
N#CC(NNC(=O)Cc1ccccc1)c1cccc(O)c1 (stereo unspecified)	> 100 µM	> 100 µM	> 100 µM	> 100 µM		> 100 µM		> 100 µM	> 100 µM	> 100 µM						
COc1ccc2[nH]c3c(c2c1)[C@H](c1ccccc1)C[C@@H]1C(=O)N(c2ccccc2)C(=O)[C@H]31	> 100 µM	17.6 µM	95.2 µM	> 100 µM	> 100 µM	35.3 µM		19 µM	71.7 µM	> 100 µM						
Cc1ccc(S(=O)c2cccs2)cc1 (stereo unspecified)		> 100 µM	> 100 µM		> 100 µM	> 100 µM	> 100 µM	> 100 µM								
CN(C)CCN(C)P12(Oc3ccccc3O1)Oc1c(Cl)c(Cl)c(Cl)c(Cl)c1O2	> 100 µM	> 100 µM	92.2 µM	> 100 µM	> 100 µM	> 100 µM	> 100 µM	> 100 µM		> 100 µM						
COc1cc2c(c(OC)c1OC)-c1ccc(SC)c(=O)cc1[C@@H](NCc1ccc(F)cc1)CC2	75 µM	75 µM	10.2 µM and > 100 µM		75 µM and > 100 µM	16.8 µM and 25 µM		0.079 µM	51.7 µM and > 100 µM				< 0.0075 µM			< 0.0075 µM
